Measurements taken from patent US11001745B2, “Hydrocarbon recovery composition, method, and system” (THE SASKATCHEWAN RESEARCH COUNCIL, priority 2016, dated 2021).

How the values were obtained:
[1] = Dissolution of asphaltenes; type: physicochemical
[2] = room temperature; cited from earlier work
Thermal stability = type: physicochemical; conditions: 200° C.

O=C1CCCN1C1CCCCC1 [NCHP, N-cyclohexyl-2-pyrrolidone]
Asphaltenes dissolve in the compound [1]: dissolve

CCCCCCCCCCCCN1CCCC1=O [NDDP, N-dodecyl-2-pyrrolidone]
Asphaltenes dissolve in the compound [1]: dissolve

CCCCCCCCN1CCCC1=O [NOP, N-octyl-2-pyrrolidone]
Solubility in water [2]: about 1 g/L
Thermal stability (Thermal stability): stable for at least one week
Asphaltenes dissolve in the compound [1]: dissolve
